Experiments:
Type in all cases: biochemical
[1] = biological target: T1, human Yes1 enzyme (Homo sapiens, UniProt P07947); experiment: Yes1 enzyme inhibitory activity (time-resolved fluorometry, biotinylated peptide phosphorylation); settings: read-out: YES_IC50
T1 construct: made in house
Procedure, shortened: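 Inhibition was expressed against a compound-free control to give IC50, using TR-FRET read-out (Eu-cryptate anti-pTyr antibody, streptavidin-XL665).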

[2] = biological target: T2, human Src enzyme (Homo sapiens, UniProt P12931); experiment: Src enzyme inhibitory activity (time-resolved fluorometry, biotinylated peptide phosphorylation); settings: read-out: SRC_IC50
T2 construct: purchased Carna Biosciences, Inc. 08-173
Procedure, shortened: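 Compounds were tested for blocking tyrosine phosphorylation of a biotinylated peptide substrate by recombinant human Src. Phosphorylated product was quantified by time-resolved fluorometry using europium cryptate and XL665 conjugates, and IC50 was calculated against the compound-free control.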

[3] = biological target: T3, human Lck enzyme (Homo sapiens, UniProt P06239); experiment: Lck enzyme inhibitory activity (time-resolved fluorometry, biotinylated peptide phosphorylation); settings: read-out: LCK_IC50
T3 construct: purchased Carna Biosciences, Inc. 08-170
Procedure, shortened: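 Readout pairs a europium cryptate-labelled anti-phosphotyrosine antibody with XL665-streptavidin, measured by time-resolved fluorescence. IC50 derived from percent inhibition against untreated controls.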

T3 sequence (P06239 whole entry): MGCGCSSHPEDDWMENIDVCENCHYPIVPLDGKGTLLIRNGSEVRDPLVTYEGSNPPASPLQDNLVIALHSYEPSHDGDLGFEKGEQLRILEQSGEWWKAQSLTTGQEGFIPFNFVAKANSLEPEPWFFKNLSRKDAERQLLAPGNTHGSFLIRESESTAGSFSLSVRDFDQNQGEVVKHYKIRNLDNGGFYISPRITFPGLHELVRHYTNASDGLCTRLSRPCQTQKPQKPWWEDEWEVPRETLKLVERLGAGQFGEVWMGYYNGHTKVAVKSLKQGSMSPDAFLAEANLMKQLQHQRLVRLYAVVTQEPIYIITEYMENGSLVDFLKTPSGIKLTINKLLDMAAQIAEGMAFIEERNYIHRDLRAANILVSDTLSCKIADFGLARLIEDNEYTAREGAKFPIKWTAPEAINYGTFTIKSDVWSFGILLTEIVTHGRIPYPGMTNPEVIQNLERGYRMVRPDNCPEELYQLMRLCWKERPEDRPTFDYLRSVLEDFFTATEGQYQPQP
T1 sequence (P07947 whole entry): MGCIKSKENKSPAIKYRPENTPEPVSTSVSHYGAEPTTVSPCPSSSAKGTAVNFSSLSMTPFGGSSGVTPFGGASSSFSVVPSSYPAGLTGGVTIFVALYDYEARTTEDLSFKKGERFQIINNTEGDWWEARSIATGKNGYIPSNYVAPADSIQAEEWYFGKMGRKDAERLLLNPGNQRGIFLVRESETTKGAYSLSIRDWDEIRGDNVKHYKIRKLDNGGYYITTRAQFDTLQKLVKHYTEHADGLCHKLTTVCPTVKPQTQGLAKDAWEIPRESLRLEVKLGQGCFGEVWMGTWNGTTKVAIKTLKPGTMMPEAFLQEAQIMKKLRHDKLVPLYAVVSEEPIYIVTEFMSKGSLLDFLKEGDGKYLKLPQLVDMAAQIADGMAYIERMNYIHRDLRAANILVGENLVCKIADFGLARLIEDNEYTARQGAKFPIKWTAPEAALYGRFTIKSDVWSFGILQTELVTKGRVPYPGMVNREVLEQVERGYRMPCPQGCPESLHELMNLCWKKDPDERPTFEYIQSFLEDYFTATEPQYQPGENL
T2 sequence (P12931 whole entry): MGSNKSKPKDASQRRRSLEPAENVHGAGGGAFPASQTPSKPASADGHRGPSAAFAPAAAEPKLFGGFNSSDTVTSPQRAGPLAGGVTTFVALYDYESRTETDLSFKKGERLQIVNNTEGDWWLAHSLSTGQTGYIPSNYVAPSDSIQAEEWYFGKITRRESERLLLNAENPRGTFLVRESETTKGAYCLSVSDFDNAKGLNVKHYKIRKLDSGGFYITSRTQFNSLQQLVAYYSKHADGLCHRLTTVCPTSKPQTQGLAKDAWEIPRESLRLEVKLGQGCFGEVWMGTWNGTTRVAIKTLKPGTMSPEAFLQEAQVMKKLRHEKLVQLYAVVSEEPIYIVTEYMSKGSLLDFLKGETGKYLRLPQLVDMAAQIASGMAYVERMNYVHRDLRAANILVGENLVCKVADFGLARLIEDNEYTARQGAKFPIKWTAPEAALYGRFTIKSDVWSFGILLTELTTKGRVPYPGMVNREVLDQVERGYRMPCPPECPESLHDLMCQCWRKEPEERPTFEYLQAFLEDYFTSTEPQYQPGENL

SMILES | IC50 [1] [nM] | IC50 [2] [nM] | IC50 [3] [nM]
Cc1cc(Oc2ccccc2F)ccc1-n1ncc(C(=O)c2cc3cc(OCC(F)F)c(N4C(=O)[C@@H]5C[C@H](NS(=O)(=O)c6ccc7ccccc7c6)CN5C4=O)cc3[nH]2)c1N [Example 5-1-276, N-[(6S,7aS)-2-[2-[5-amino-1-[4-(2-fluorophenoxy)-2-methylphenyl]pyrazole-4-carbonyl]-5-(2,2-difluoroethoxy)-1H-indol-6-yl]-1,3-dioxo-5,6,7,7a-tetrahydropyrrolo[1,2-c]imidazol-6-yl]naphthalene-2-sulfonamide] | 2.2 | 87 | 35
Cc1cc(Oc2ccccc2F)ccc1-n1ncc(C(=O)c2cc3cc(OCC(F)F)c(NC(=O)OCC4c5ccccc5-c5ccccc54)cc3[nH]2)c1N [Example 5-1-279, 9H-fluoren-9-ylmethyl N-[2-[5-amino-1-[4-(2-fluorophenoxy)-2-methylphenyl]pyrazole-4-carbonyl]-5-(2,2-difluoroethoxy)-1H-indol-6-yl] carbamate] | 14 | 910 | 170
Cc1cc(Oc2ccccc2F)ccc1-n1ncc(C(=O)c2cc3cc(C(C)C)c(NS(=O)(=O)C4CCOCC4)cc3[nH]2)c1N [Example 5-1-282, N-[2-[5-amino-1-[4-(2-fluorophenoxy)-2-methylphenyl]pyrazole-4-carbonyl]-5-propan-2-yl-1H-indol-6-yl]oxane-4-sulfonamide] | 4.8 | 200 | 120
Cc1cc2cc(C(=O)c3cnn(-c4cnc(Oc5c(F)cccc5F)cc4C)c3N)[nH]c2cc1N1C(=O)NC(C)(C)C1=O [Example 5-1-286, 3-[2-[5-amino-1-[6-(2,6-difluorophenoxy)-4-methylpyridin-3-yl]pyrazole-4-carbonyl]-5-methyl-1H-indol-6-yl]-5,5-dimethylimidazolidine-2,4-dione] | 2.3 | 30 | 5.3
Cc1cc(Oc2c(F)cccc2F)ncc1-n1ncc(C(=O)c2cc3cc(OC4CCN(C5CCCC5)CC4)c(-c4ccccc4Cl)cc3[nH]2)c1N [Example 5-1-288, [5-amino-1-[6-(2,6-difluorophenoxy)-4-methylpyridin-3-yl]pyrazol-4-yl]-[6-(2-chlorophenyl)-5-(1-cyclopentylpiperidin-4-yl)oxy-1H-indol-2-yl]methanone] | 1.9 | 52 | 17
Cc1cc(Oc2c(F)cccc2F)ncc1-n1ncc(C(=O)c2cc3cc(OC4CCN(C5CS(=O)(=O)C5)CC4)c(-c4ccccc4Cl)cc3[nH]2)c1N [Example 5-1-290, [5-amino-1-[6-(2,6-difluorophenoxy)-4-methylpyridin-3-yl]pyrazol-4-yl]-[6-(2-chlorophenyl)-5-[1-(1,1-dioxothietan-3-yl)piperidin-4-yl]oxy-1H-indol-2-yl]methanone] | 2.1 | 46 | 30
Cc1cc2cc(C(=O)c3cnn(-c4cnc(Oc5c(F)cccc5F)cc4C)c3N)[nH]c2cc1NS(=O)(=O)N1C2CCC1COC2 [Example 5-1-291, N-[2-[5-amino-1-[6-(2,6-difluorophenoxy)-4-methylpyridin-3-yl]pyrazole-4-carbonyl]-5-methyl-1H-indol-6-yl]-3-oxa-8-azabicyclo[3.2.1] octane-8-sulfonamide] | 10 | 420 | 130
Cc1cc(-n2ncc(C(=O)c3cc4cc(OC5CCN(C(C)C)CC5)c(N5C(=O)N[C@@H](CO)C5=O)cc4[nH]3)c2N)ccc1Oc1ccccc1F [Example 5-1-293, (5S)-3-[2-[5-amino-1-[4-(2-fluorophenoxy)-3-methylphenyl]pyrazole-4-carbonyl]-5-(1-propan-2-ylpiperidin-4-yl)oxy-1H-indol-6-yl]-5-(hydroxymethyl)imidazolidine-2,4-dione] | 0.73 | 440 | 18
Cc1cc(-n2ncc(C(=O)c3cc4cc(OC5CCN(C(C)C)CC5)c(N5C(=O)N[C@@H](Cc6ccccc6)C5=O)cc4[nH]3)c2N)ccc1Oc1ccccc1F [Example 5-1-294, (5S)-3-[2-[5-amino-1-[4-(2-fluorophenoxy)-3-methylphenyl]pyrazole-4-carbonyl]-5-(1-propan-2-ylpiperidin-4-yl)oxy-1H-indol-6-yl]-5-benzylimidazolidine-2,4-dione] | 2.2 | 960 | 110
Cc1cc(-n2ncc(C(=O)c3cc4cc(OC5CCN(C(C)C)CC5)c(N5C(=O)N[C@@H](C(C)C)C5=O)cc4[nH]3)c2N)ccc1Oc1ccccc1F [Example 5-1-295, (5S)-3-[2-[5-amino-1-[4-(2-fluorophenoxy)-3-methylphenyl]pyrazole-4-carbonyl]-5-(1-propan-2-ylpiperidin-4-yl)oxy-1H-indol-6-yl]-5-propan-2-ylimidazolidine-2,4-dione] | 1.5 | 700 | 64

Now from value to compound:

IC50 [1] [nM] | IC50 [2] [nM] | IC50 [3] [nM] | SMILES
1.5 | 39 | 12 | Cc1cc(Oc2ccccc2F)ccc1-n1ncc(C(=O)c2cc3cc(OCC(F)F)c(N4C(=O)NC5(CCN(Cc6ccccc6)CC5)C4=O)cc3[nH]2)c1N [Example 5-1-277, 3-[2-[5-amino-1-[4-(2-fluorophenoxy)-2-methylphenyl]pyrazole-4-carbonyl]-5-(2,2-difluoroethoxy)-1H-indol-6-yl]-8-benzyl-1,3,8-triazaspiro[4.5]decane-2,4-dione]
1.2 | 23 | 8.7 | Cc1cc(Oc2ccccc2F)ccc1-n1ncc(C(=O)c2cc3cc(OCC(F)F)c(N4C(=O)[C@@H]5C[C@H](NC(=O)OCc6ccco6)CN5C4=O)cc3[nH]2)c1N [Example 5-1-278, furan-2-ylmethyl ((6S,7aS)-2-(2-(5-amino-1-(4-(2-fluorophenoxy)-2-methylphenyl)-1H-pyrazole-4-carbonyl)-5-(2,2-difluoroethoxy)-1H-indol-6-yl)-1,3-dioxohexahydro-1H-pyrrolo[1,2-c]imidazol-6-yl)carbamate]
1.8 | 80 | 31 | Cc1cc(Oc2ccccc2F)ccc1-n1ncc(C(=O)c2cc3cc(C(C)C)c(NS(=O)(=O)CCCF)cc3[nH]2)c1N [Example 5-1-280, N-[2-[5-amino-1-[4-(2-fluorophenoxy)-2-methylphenyl]pyrazole-4-carbonyl]-5-propan-2-yl-1H-indol-6-yl]-3-fluoropropane-1-sulfonamide]
1.9 | 140 | 27 | Cc1cc2cc(C(=O)c3cnn(-c4cnc(Oc5c(F)cccc5F)cc4C)c3N)[nH]c2cc1NS(=O)(=O)C1CCOC1 (stereo not drawn) [Example 5-1-281, N-[2-[5-amino-1-[6-(2,6-difluorophenoxy)-4-methylpyridin-3-yl]pyrazole-4-carbonyl]-5-methyl-1H-indol-6-yl]oxolane-3-sulfonamide]
2 | 270 | 32 | Cc1cc(-n2ncc(C(=O)c3cc4cc(OC5CCN(C6CS(=O)(=O)C6)CC5)c(-c5cncnc5)cc4[nH]3)c2N)ccc1Oc1ccccc1F [Example 5-1-283, [5-amino-1-[4-(2-fluorophenoxy)-3-methylphenyl]pyrazol-4-yl]-[5-[1-(1,1-dioxothietan-3-yl)piperidin-4-yl]oxy-6-pyrimidin-5-yl-1H-indol-2-yl]methanone]
1.1 | 11 | 6.9 | Cc1cc(Oc2c(F)cccc2F)ncc1-n1ncc(C(=O)c2cc3cc(OC4CCN(C5CS(=O)(=O)C5)CC4)c(-c4cncnc4)cc3[nH]2)c1N [Example 5-1-284, [5-amino-1-[6-(2,6-difluorophenoxy)-4-methylpyridin-3-yl]pyrazol-4-yl]-[5-[1-(1,1-dioxothietan-3-yl)piperidin-4-yl]oxy-5-pyrimidin-5-yl-1H-indol-2-yl]methanone]
5.2 | 2300 | 500 | Cc1cc(-n2ncc(C(=O)c3cc4cc(OC5CCN(C6CCCC6)CC5)c(-c5ccccc5Cl)cc4[nH]3)c2N)ccc1Oc1ccccc1F [Example 5-1-285, [5-amino-1-[4-(2-fluorophenoxy)-3-methylphenyl]pyrazol-4-yl]-[6-(2-chlorophenyl)-5-(1-cyclopentylpiperidin-4-yl)oxy-1H-indol-2-yl]methanone]
1 | 350 | 17 | Cc1cc(-n2ncc(C(=O)c3cc4cc(OC5CCN(C(C)C)CC5)c(N5C(=O)N[C@@H](C)C5=O)cc4[nH]3)c2N)ccc1Oc1ccccc1F [Example 5-1-287, (5S)-3-[2-[5-amino-1-[4-(2-fluorophenoxy)-3-methylphenyl]pyrazole-4-carbonyl]-5-(1-propan-2-ylpiperidin-4-yl)oxy-1H-indol-6-yl]-5-methylimidazolidine-2.4-dione]
19 | 630 | 88 | Cc1cc2cc(C(=O)c3cnn(-c4cnc(Oc5c(F)cccc5F)cc4C)c3N)[nH]c2cc1NS(=O)(=O)N1CCOC[C@H]1C [Example 5-1-292, (3R)-N-[2-[5-amino-1-[6-(2,6-difluorophenoxy)-4-methylpyridin-3-yl]pyrazole-4-carbonyl]-5-methyl-1H-indol-6-yl]-3-methylmorpholine-4-sulfonamide]
5.9 | 150 | 46 | Cc1cc(Oc2c(F)cccc2F)ncc1-n1ncc(C(=O)c2cc3cc(OCC(F)F)c(NS(=O)(=O)Cc4ccccc4)cc3[nH]2)c1N [Example 5-1-296, N-[2-[5-amino-1-[6-(2,6-difluorophenoxy)-4-methylpyridin-3-yl]pyrazole-4-carbonyl]-5-(2,2-difluoroethoxy)-1H-indol-6-yl]-1-phenylmethanesulfonamide]

From patent US10479780B2, “Aminopyrazole derivatives” (Chugai Seiyaku Kabushiki Kaisha, priority 2015, dated 2019)
